Earlier results, collected in patent US9339581B2, “Absorbent and absorbent article provided therewith” (UNICHARM CORPORATION, priority 2012, dated 2016).

Conditions: at 20° C.; cited from earlier work

CCCCC(=O)CCCC [5-nonanone]
vapor pressure: about 230 Pa
